# Patent US12642827B2, “Lactic acid bacteria strain—antibacterial peptides produced by said strain and related pharmaceutical compositions” (UNIVERSITE DE LILLE, priority 2019, dated 2026)
# Ends that are not written are not given here. His‑tag = His-Tag tail of six histidine residues (6 His), attached at the N- or C-terminal end
# How the values were obtained:
# Assay type in all cases: cell-based, Escherichia coli
# E. coli TOP10 = details: E. coli TOP10, LPS-
# Protocol: (§1) The cell-free supernatant (CFS) was obtained by centrifugation (8 000 g, 10 min, 4° C.) of a culture of L. paracasei I-CNCM 5369 grown without shaking on MRS medium for 24 to 30 h at 37° C. Then 40 mL of the obtained CFS was loaded onto a reversed phase C18 (Agilent, USA) cartridge. Afterwards, a washing step was performed with 10% (v/v) acetonitrile followed-up by an elution with 40 mL of 20% (v/v) acetonitrile solution in order to eluate the active fraction. The active fraction was dried using SpeedVac and resuspended in 1:10 of the initial volume of ultrapure water. The resulting active solution was designed as fraction E20 (or E20% particularly in the figures) throughout the text. Fraction E20 was stored at 4° C. and therefore used for the different tests to characterize the anti-E. coli activity. Noteworthy, E20 fraction was tested against a panel of E. coli strains with different genotypes to examine their sensibility to the putative bacteriocin(s) contained in this fraction. This assessment was performed by the determination of the minimal inhibitory concentration (MIC) values, which were ranging from 250 to 2 000 μg/mL (Table 5).
# (§2) E20 fraction prepared from L. paracasei I-CNCM 5369, was half-diluted and mixed with colistin at a concentration ranging from 1 to 128 μg/mL in BHI medium. The resulting formulations were tested against E. coli 184, carrying the mcr-1 gene, as well as on other E. coli strains (Table 6). After an overnight period of incubation at 37° C., the growth of E. coli strains was checked by spectrophotometry at OD600 nm, and new MIC values of colistin/E20 were determined. […] Indeed, the decreased from 8 to 2 μg/mL in the presence of E20 fraction. This synergetic interaction was as well observed for other E. coli strains, where the MIC values decreased twice for E. coli E4A4WT, 4 times folds for E. coli 289 and 8 times for E. coli E4A4 variant. […] The weight composition of the mixture of E20 fraction+colistin is indicated in brackets next to the MIC value. The first value refers to the amount of colistin in μg/mL, whereas the second in brackets refers to the amount of E20 fraction in μg/mL).
# (§3) The alginate nanoparticles (Alg NPs) were obtained by a top down process (ball milling) and used at a concentration of 500 μg/mL. The E20 fraction was mixed at a concentration of 60 μg/mL with this suspension, which corresponds to 12% of the used Alg NPs concentration. […] To gain insights on the effects of alginate nanoparticles, colistin was also loaded on Alg NPs and the resulting formulation (colistin-Alg NPs) was tested against same target E. coli strains.
# E. coli 289 = details: E. coli 289, mcr-1−
# Protocol: as §1, §2, §3
# E. coli 184 = details: E. coli 184, mcr-1+
# Protocol: as §1, §2, §3
# E. coli SBS36 = details: E. coli SBS36, truncated LPS
# Protocol: as §1, §2, §3
# panel of E. coli strains = assay: Anti-E. coli activity / MIC over a panel of strains
# E. coli ATCC8739 [1] = assay: Killing curves; details: BHI, inhibitory concentration (colistin 16 μg/mL), pH 4.5-5, 37° C.
# Protocol: The killing curves were determined on three E. coli strains, because of for their resistance or sensitivity to colistin. These strains were E. coli 184 (mcr-1), E. coli E4A4 variant with resistance to colistin, and E. coli ATCC8739 colistin-sensitive reference strain (Table 5). These strains were inoculated in BHI (Brain Heart Infusion) medium containing the semi-purified fraction of E20 fraction at inhibitory concentration. An untreated E. coli ATCC8739 control treated with inhibitory concentration of colistin (16 μg/mL) was also tested. The pH of the medium was adjusted to 4.5-5 in the various samples, which were incubated at 37° C. for 8 h. At regular intervals of time, samples were taken to determine the number of colony forming units per mL (CFU/mL) under each tested condition.
# As depicted in the FIG. 2, the number of CFU/mL of the strains treated with E20 fraction decreased rapidly with no visible growth (0 CFU/mL), after 1 h of incubation. […] A similar data was obtained after 1 h of incubation for E. coli ATCC8739 treated with colistin (16 μg/mL).
# E. coli CIP7628 = assay: MIC determination; details: E. coli CIP7628, reference strain
# Protocol: as §1
# The alginate nanoparticles (Alg NPs) were obtained by a top down process (ball milling) and used at a concentration of 500 μg/mL. […]
# E. coli ATCC8739 [2] = assay: MIC determination; details: E. coli ATCC8739, reference strain
# Protocol: as §1
# as §2, with “The first value refers to the amount of colistin in μg/mL, whereas the second in brackets refers to the amount of E20 fraction in μg/mL).” left out
# E. coli E4A4 variant = assay: MIC determination; details: colistin unsensibilised
# Protocol: as §1
# as §2, with “The first value refers to the amount of colistin in μg/mL, whereas the second in brackets refers to the amount of E20 fraction in μg/mL).” left out
# E. coli E4A4 WT = assay: MIC determination; details: environmental strain
# Protocol: as §1
# as §2, with “The first value refers to the amount of colistin in μg/mL, whereas the second in brackets refers to the amount of E20 fraction in μg/mL).” left out
# [3] = system: E. coli colistin-resistant strain; assay: Anti-E. coli activity (AU/mL) of recombinant peptides; details: purified on Ni-NTA, adjusted to pH 5
# Source text: Each of the orf coding for putative bacteriocin was cloned in expression vector suitable for E. coli competent cells. Each orf was cloned under the control of the inducible T7 promoter and with His-Tag (6 His) tail positioned on the N-terminal or C-terminal part. The cloning of each orf at the N- or C-terminal position of Histag tail, has led to 10 recombinant plasm ids. Each of these recombinant plasm ids was introduced in E. coli BL21 (DE3)(plysS) competent cells. The successfully transformed E. coli was regenerated in SOC medium for 1 h at 37° C. with shaking at 160 rpm, and then selected on Luria-Bertani (LB) agar medium supplemented with ampicillin (100 μg mL^−1) and chloramphenicol (30 μg mL^−1) (Sigma Aldrich). After overnight incubation at 37° C., the obtained colonies on LB agar medium with antibiotics were checked for the presence of the recombined plasmid containing the appropriate cloned orfs by PCR using specific primers.
# Overnight culture of E. coli strain BL21(DE3)(pLysS), harboring each recombinant plasmid, was diluted to 1% (vol/vol) in LB medium containing ampicillin (100 μg mL^−1) and chloramphenicol (30 μg mL^−1) and then grown aerobically at 37° C. […]
# Then the obtained solution was adjusted to pH 5 using acetic acid and then its activity (AU/mL) against E. coli colistin-resistant strain was evaluated, as described previously.
Substance,MIC (E. coli TOP10) [µg/mL],MIC (E. coli 289) [µg/mL],MIC (E. coli 184) [µg/mL],MIC (E. coli SBS36) [µg/mL],colistin MIC of E. coli 184 compared to reference strain E. coli ATCC8739 (panel of E. coli strains),incubation time to no visible growth (0 CFU/mL) (E. coli ATCC8739 [1]) [h],MIC (E. coli CIP7628) [µg/mL],MIC (E. coli ATCC8739 [2]) [µg/mL],MIC (E. coli E4A4 variant) [µg/mL],MIC (E. coli E4A4 WT) [µg/mL],anti E. coli activity [3] [AU/mL]
colistin,1,8,8,2,four folds higher,1,1,2,16,2,–
Orf10 HisTag C-ter: recombinant Orf010 peptide with C-terminal His-Tag expressed in E. coli BL21 (DE3) (pLysS) (MYTMTNLKDKELSQITGGFAFVIPVAAILGFLASDAWSHADEIAGGATSGWSLADKSHSL-{His‑tag}; not fully specified; listed as Lactobacillus paracasei),–,–,–,–,–,–,–,–,–,–,200
